According to paper PMC7760315 (Biomolecules, 2020):
Where two headings read alike, the source gives them in different places.

Tests used:
GlyRα1 [1] = biological target: T1, GlyRα1 (Homo sapiens, UniProt P23415); assay: Two-electrode voltage clamp, Xenopus laevis oocytes expressing GlyRα1 alone; format: cell-based; conditions: for nH of glycine dose-response in the presence of lipid: 1 µM lipid, fast-flow
T1 construct: expressed in transfected cells; host or cells: Xenopus laevis oocytes (cRNA injection)
T1 sequence (P23415 29-457): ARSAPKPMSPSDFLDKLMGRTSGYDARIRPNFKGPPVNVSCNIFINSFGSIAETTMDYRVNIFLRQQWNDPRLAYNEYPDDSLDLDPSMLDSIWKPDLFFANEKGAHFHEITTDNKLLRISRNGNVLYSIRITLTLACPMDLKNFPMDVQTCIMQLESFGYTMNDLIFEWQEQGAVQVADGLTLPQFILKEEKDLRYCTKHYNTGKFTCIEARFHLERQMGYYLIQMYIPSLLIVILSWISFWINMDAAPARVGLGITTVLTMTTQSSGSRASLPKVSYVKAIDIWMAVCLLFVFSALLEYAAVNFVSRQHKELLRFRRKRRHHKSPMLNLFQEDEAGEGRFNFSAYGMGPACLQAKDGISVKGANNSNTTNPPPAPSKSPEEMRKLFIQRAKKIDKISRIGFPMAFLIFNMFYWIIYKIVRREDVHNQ
Excerpt: (§1) Human GlyT1b and GlyT2a WT cDNA were subcloned into the plasmid oocyte transcription vector (pOTV) and human GlyRα1, GlyRα3 and GlyRβ into pGEMHE. GlyR cDNA pGEMHE vectors were provided by Mary Collins at the University of Sydney (Sydney, Australia). Single point mutations were introduced into GlyRα1 using the Q5 site-directed mutagenesis kit (New England Biolabs (Genesearch), Arundel, Australia) with oligonucleotide primers (Merck, Sydney, Australia) containing the desired mutations. The amplified cDNA/pOTV or cDNA/pGEMHE product was then transformed in E. coli cells, and subsequently purified using the PureLink Quick Plasmid Miniprep Kit (Invitrogen by Life Technologies, Löhne, Germany), and sequenced by the Australian Genome Research Facility (Sydney, Australia). The purified plasmid DNA was linearised via the restriction enzyme, SpeI (New England Biolabs (Genesearch), Arundel, Australia) for GlyT1b and GlyT2a (henceforth referred to as GlyT1 and GlyT2 respectively) and NheI (New England Biolabs (Genesearch)) for GlyRα1, GlyRα3 and GlyRβ. Complementary RNAs were synthesised using the mMESAGE mMACHINE T7 kit (Ambion, Austin, TX, USA).
(§2) All work involving the use of animals was performed in accordance with the Australian Code of Practice for the Care and Use of Animals for Scientific Purposes and approved by the University of Sydney Animal Ethics Committee (Approval numbers 2016/970 and 2020/1704). […] The oocytes were then stored in frog Ringer’s solution (96 mM NaCl, 2 mM KCl, 1 mM MgCl2, 1.8 mM CaCl2, 5 mM HEPES, pH 7.5) which was supplemented with 2.5 mM sodium pyruvate, 0.5 mM theophylline, 50 μg/mL gentamicin and […] tetracycline. The oocytes were stored at 18 °C for 3–5 days, until transporter and receptor expression were adequate for measurement using the two-electrode voltage clamp technique.
(§3) GlyT1, GlyT2, GlyRα1, GlyRα3, GlyRα1β and GlyRα3β are electrogenic, allowing activation to be measured via the two-electrode voltage clamp technique. Oocytes were voltage clamped at −60 mV, and whole-cell currents generated by the substrate were recorded with a Geneclamp 500 amplifier (Axon Instruments, Foster City, CA, USA), digitised by a Powerlab 2/20 chart recorder (ADInstruments, Sydney, Australia). LabChart version 8 software (ADInstruments, Sydney, Australia) was used to visualise and process current traces. Recordings were performed in frog Ringer’s solution, except for low Na^+ experiments where Na^+ was replaced with choline. Oocytes were placed in an oval-shaped bath with a volume of 0.3 mL, with laminar flow around the oocyte at a rate of 12 mL min^−1 under gravity feed.
(§4) Varying concentrations of substrate or agonist were applied to cells in ND96.
(§5) Flow of the solution was stopped until the current plateaued, by manually closing a three-way valve on one end of the bath such that the solution in the bath was static and is referred to henceforth as ‘stop-flow’.

GlyRα1/GlyT1 [2] = biological target: T2, GlyRα1/GlyT1 (Homo sapiens, UniProt P23415); assay: Two-electrode voltage clamp, oocytes co-expressing GlyRα1/GlyT1; format: cell-based
T2 construct: expressed in transfected cells; host or cells: Xenopus laevis oocytes (cRNA co-injection)
T2 sequence (P23415 29-457): T1 sequence (P23415 29-457)
Excerpt: as §1, §2, §3, §4, §5

GlyRα1/GlyT2 = GlyRα1/GlyT2 (Homo sapiens, UniProt P23415); assay: Two-electrode voltage clamp, oocytes co-expressing GlyRα1/GlyT2; format: cell-based
Excerpt: as §1, §2, §3
Varying concentrations of substrate or agonist were applied to cells in ND96. […]

GlyT2 = conditions: cited from earlier work; for GlyT2 Activity: % Inhibition (1 µM): 1 µM lipid, inhibition of glycine transport; for IC50: inhibition of glycine transport by GlyT2
GlyRα1 [3] = conditions: cited from earlier work; for GlyRα1 Potentiation at EC5 (%): % stimulation of glycine EC5 caused by 1 µM lipid
GlyRα1/GlyT1 [4] = biological target: T3, GlyRα1/GlyT1 (Homo sapiens, UniProt P48067); assay: Two-electrode voltage clamp, oocytes co-expressing GlyRα1/GlyT1; format: cell-based; conditions: 1 μM ALX-5407; 1 mM Na+ buffer
T3 construct: expressed in transfected cells; host or cells: Xenopus laevis oocytes (cRNA co-injection)
T3 sequence (P48067 1-652 isoform P48067-3): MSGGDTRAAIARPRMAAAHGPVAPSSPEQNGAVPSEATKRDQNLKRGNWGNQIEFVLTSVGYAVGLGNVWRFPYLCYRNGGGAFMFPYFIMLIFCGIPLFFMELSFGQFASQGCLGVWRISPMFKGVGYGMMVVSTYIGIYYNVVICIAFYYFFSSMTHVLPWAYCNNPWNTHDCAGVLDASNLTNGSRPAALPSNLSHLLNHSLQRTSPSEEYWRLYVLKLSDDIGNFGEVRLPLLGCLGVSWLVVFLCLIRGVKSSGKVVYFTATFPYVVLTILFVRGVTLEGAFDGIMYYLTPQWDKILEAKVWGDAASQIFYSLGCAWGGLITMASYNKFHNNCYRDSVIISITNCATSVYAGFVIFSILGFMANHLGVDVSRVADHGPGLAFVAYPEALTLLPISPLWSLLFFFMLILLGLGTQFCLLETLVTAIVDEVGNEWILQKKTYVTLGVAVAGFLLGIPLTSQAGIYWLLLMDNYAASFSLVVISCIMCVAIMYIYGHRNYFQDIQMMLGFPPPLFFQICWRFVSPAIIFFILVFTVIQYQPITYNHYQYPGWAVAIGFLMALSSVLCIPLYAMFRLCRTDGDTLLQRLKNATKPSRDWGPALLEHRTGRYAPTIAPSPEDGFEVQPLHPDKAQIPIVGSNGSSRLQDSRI
Excerpt: as §1, §2, §3, §4, §5

GlyT1 = conditions: cited from earlier work
[5] = non-transportable GlyR agonist, read-out: β-alanine EC50

Sequence of GlyRα1/GlyT2 (Q9Y345 whole entry partner, one chain of several): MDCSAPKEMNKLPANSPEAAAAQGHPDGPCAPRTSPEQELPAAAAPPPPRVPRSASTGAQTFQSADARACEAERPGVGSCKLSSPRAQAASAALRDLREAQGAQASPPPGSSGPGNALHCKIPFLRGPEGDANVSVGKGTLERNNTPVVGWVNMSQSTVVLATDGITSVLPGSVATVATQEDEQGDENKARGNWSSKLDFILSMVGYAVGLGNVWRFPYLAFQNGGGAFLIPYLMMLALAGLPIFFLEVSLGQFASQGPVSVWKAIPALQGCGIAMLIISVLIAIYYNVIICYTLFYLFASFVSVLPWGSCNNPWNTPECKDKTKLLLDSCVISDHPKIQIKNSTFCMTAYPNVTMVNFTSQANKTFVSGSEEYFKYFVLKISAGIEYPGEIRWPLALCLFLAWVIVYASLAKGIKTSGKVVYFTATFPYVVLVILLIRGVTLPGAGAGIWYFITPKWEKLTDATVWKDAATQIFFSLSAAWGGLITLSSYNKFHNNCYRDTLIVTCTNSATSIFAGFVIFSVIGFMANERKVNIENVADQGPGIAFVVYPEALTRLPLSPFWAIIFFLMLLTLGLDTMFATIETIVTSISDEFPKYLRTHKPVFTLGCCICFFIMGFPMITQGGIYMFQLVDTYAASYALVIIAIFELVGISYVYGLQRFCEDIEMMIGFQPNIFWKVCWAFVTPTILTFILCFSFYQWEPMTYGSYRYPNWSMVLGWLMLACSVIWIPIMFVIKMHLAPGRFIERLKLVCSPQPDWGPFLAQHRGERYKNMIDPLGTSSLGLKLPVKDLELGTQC

NCCC(=O)O [β-alanine]
EC50 (GlyRα1 [1]; [5]): 28.3 µM | EC50 (GlyRα1/GlyT1 [2]; [5]): 28 µM | EC50 (GlyRα1/GlyT2): 27.4 µM

CCCCCCCC/C=C\CCCCCCCC(=O)NCC(=O)O [C18-cis-ω9-glycine]
nH of glycine dose-response in the presence of lipid (GlyRα1 [1]): 2.4 ± 0.2 ns | GlyT2 Activity: % Inhibition (1 µM) (GlyT2): 50.1 ± 0.06% | GlyT2 Activity: % Inhibition (1 µM) (GlyT2; listed as 18-cis-ω9-glycine): 89.6 ± 0.01% | IC50 (GlyT2): 31 nM | GlyT2 Activity: Max inhibition (%) (GlyT2; maximal level of inhibition observed): 95.0% | GlyRα1 Potentiation at EC5 (%) (GlyRα1 [3]): 84.7 ± 14.0% | GlyRα1 Potentiation at EC5 (%) (GlyRα1 [3]; listed as 18-cis-ω9-glycine): 84.7 ± 14.0 (8) % | effect on Imax of GlyRα1 (GlyRα1 [3]; dose-dependent): increases | effect on glycine EC50 of GlyRα1 (GlyRα1 [3]; dose-dependent): decreases

CCCCCC/C=C\CCCCCCCCCC(=O)NCC(=O)O [C18-cis-ω7-glycine]
nH of glycine dose-response in the presence of lipid (GlyRα1 [1]): 2.8 ± 0.3 ns | GlyT2 Activity: % Inhibition (1 µM) (GlyT2): 10.5 ± 0.02% | IC50 (GlyT2): > 10000 nM | GlyRα1 Potentiation at EC5 (%) (GlyRα1 [3]): 184.7 ± 41.3 (5) %

CN(CC[C@@H](Oc1ccc(-c2ccccc2)cc1)c1ccc(F)cc1)CC(=O)O [ALX-5407]
nH of glycine dose-response in the presence of GlyT inhibitor (GlyRα1/GlyT1 [2]; 1 µM inhibitor, fast-flow): 2.0 ± 0.2 ns | stopped flow increase in current amplitude (reverse glycine transport / efflux) (GlyRα1/GlyT1 [4]): prevents | IC50 (GlyT1): 3 nM
